Test results from paper PMC5387716, “Discovery of monocarbonyl curcumin-BTP hybrids as STAT3 inhibitors for drug-sensitive and drug-resistant breast cancer therapy” (Scientific Reports, 2017).
Read-outs that look alike come from different tables or passages of the source.

Legend:
MCF-7/DOX cells = experiment: MTT anti-proliferative assay, MCF-7/DOX; format: cell-based, human; settings: for IC50: MTT, 48 h, read-out: MCF-7/DOX IC50 ± SD
Method: (§1) All cell lines were purchased from Cell Bank of Shanghai Institute of Biochemistry and Cell Biology, Chinese Academy of Sciences (Shanghai, China). Human breast carcinoma cells (MCF-7 and MCF-7/DOX), breast epithelial cells (MCF-10A) and normal human liver cells (LO2) were maintained in RPMI-1640 medium. All cells were supplemented with 12% fetal bovine serum containing 50 μg/ml penicillin and 50 μg/ml streptomycin. Cells were grown to 80% confluency in a tissue culture flask at 37 °C in a humidified atmosphere containing 5% CO2, and then were trypsinized with 1 × Trypsin-Versene and split. The MCF-7/DOX cell line we used was established from its parental cell line MCF-7 cell by gradually increasing the concentration of DOX to which the cells were exposed in a stepwise manner over a period of 8 months. […] The cells were incubated in drug-free medium for at least 1 week before use.
(§2) Cells (MCF-7, MCF-7/DOX, MCF-10A, LO2) were seeded in 96-well plates at a density of 3,000–6,000 cells per well. The cells were incubated overnight (16 h) in a humidified 5% CO2 incubator at 37 °C. After media removal, different concentrations of test compounds were added in triplicate to the plates in 200 μL of fresh media and were incubated with the cells at 37 °C for 48 h. […] Cell viability was evaluated using 3-(4, 5-dimethylthiazolyl)-2,5-diphenyltetrazoliumbromide (MTT). The absorbance was read by an ELISA reader (SpectraMax Plus384, Molecular Devices, Sunnyvale, CA) at a test wavelength of 570 nm and a reference wavelength of 630 nm. Cell viability was calculated using the following formula: […]

MCF-7 cells = experiment: MTT anti-proliferative assay, MCF-7; format: cell-based, human; settings: read-out: MCF-7 IC50 ± SD
Method: as §1, §2

LO2 cells = experiment: MTT anti-proliferative assay, LO2; format: cell-based; settings: Homo sapiens, L02, 48 h, normal human liver cells, Table 2 prints no unit, μM
Method: as §1, §2

MCF-10A cells = experiment: MTT anti-proliferative assay, MCF-10A; format: cell-based, human; settings: Homo sapiens, MCF-10A, 48 h, normal breast epithelial cells, Table 2 prints no unit, μM
Method: as §1, §2

Row | Compound | IC50 (MCF-7/DOX cells; Homo sapiens, MCF7-DOX) [nM] | IC50 (MCF-7 cells; Homo sapiens, MCF7, 48 h) [nM] | melting point [°C] | IC50 (MCF-7/DOX cells) [nM] | IC50 (MCF-7 cells; 48 h) [nM] | IC50 (LO2 cells) [µM] | resistance to DOX compared with parental DOX-sensitive cells (MCF-7/DOX cells; MCF-7/DOX vs MCF-7) [fold] | IC50 (MCF-10A cells) [µM]
1 | O=C(/C=C/c1ccccn1)N1CCN(C(=O)C2=Cc3cc(Br)ccc3S2(=O)=O)CC1 [Compound 6f, (E)-1-(4-(5-bromo-1,1-dioxidobenzo[b]thiophene-2-carbonyl)piperazin-1-yl)-3-(pyridin-2-yl)prop-2-en-1-one] | 1890 ± 270 | 1080 ± 60 | 241 to 242 |  |  |  |  | 
2 | O=C(/C=C/c1ccc([N+](=O)[O-])cc1)N1CCN(C(=O)C2=Cc3cc(Br)ccc3S2(=O)=O)CC1 [Compound 6e, (E)-1-(4-(5-bromo-1,1-dioxidobenzo[b]thiophene-2-carbonyl)piperazin-1-yl)-3-(4-nitrophenyl)prop-2-en-1-one] | 1080 ± 140 | 1180 ± 80 | > 250 |  |  |  |  | 
3 | COc1cc(/C=C/C(=O)N2CCN(C(=O)C3=Cc4cc(Br)ccc4S3(=O)=O)CC2)cc(OC)c1OC [Compound 6c, (E)-1-(4-(5-bromo-1,1-dioxidobenzo[b]thiophene-2-carbonyl)piperazin-1-yl)-3-(3,4,5-trimethoxyphenyl)prop-2-en-1-one] | 860 ± 130 | 1230 ± 80 | 94 to 96 |  |  |  |  | 
4 | COc1cc(/C=C/C(=O)N2CCN(C(=O)C3=Cc4cc(Br)ccc4S3(=O)=O)CC2)cc(OC)c1O [Compound 6d, (E)-1-(4-(5-bromo-1,1-dioxidobenzo[b]thiophene-2-carbonyl)piperazin-1-yl)-3-(4-hydroxy-3,5-dimethoxyphenyl)prop-2-en-1-one] | 2270 ± 600 | 2250 ± 350 | 125 to 127 |  |  |  |  | 
5 | O=C(/C=C/c1ccc(C(F)(F)F)cc1)N1CCN(C(=O)C2=Cc3cc(Br)ccc3S2(=O)=O)CC1 [Compound 6i, (E)-1-(4-(5-bromo-1,1-dioxidobenzo[b]thiophene-2-carbonyl)piperazin-1-yl)-3-(4-(trifluoromethyl)phenyl)prop-2-en-1-one] | 870 ± 120 | 670 ± 140 | 245 to 247 |  |  |  |  | 
6 | O=C(/C=C/c1ccc(F)cc1)N1CCN(C(=O)C2=Cc3cc(Br)ccc3S2(=O)=O)CC1 [Compound 6k, (E)-1-(4-(5-bromo-1,1-dioxidobenzo[b]thiophene-2-carbonyl)piperazin-1-yl)-3-(4-fluorophenyl)prop-2-en-1-one] | 2440 ± 570 | 1500 ± 180 | > 250 |  |  |  |  | 
7 | O=C(/C=C/c1ccc(Cl)cc1)N1CCN(C(=O)C2=Cc3cc(Br)ccc3S2(=O)=O)CC1 [Compound 6h, (E)-1-(4-(5-bromo-1,1-dioxidobenzo[b]thiophene-2-carbonyl)piperazin-1-yl)-3-(4-chlorophenyl)prop-2-en-1-one] | 720 ± 130 | 2020 ± 200 | 225 to 227 |  |  |  |  | 
8 | O=C(/C=C/c1ccc(Br)cc1)N1CCN(C(=O)C2=Cc3cc(Br)ccc3S2(=O)=O)CC1 [Compound 6g, (E)-1-(4-(5-bromo-1,1-dioxidobenzo[b]thiophene-2-carbonyl)piperazin-1-yl)-3-(4-bromophenyl)prop-2-en-1-one] | 1180 ± 70 | 2080 ± 60 | > 250 |  |  |  |  | 
9 | COc1ccc(/C=C/C(=O)N2CCN(C(=O)C3=Cc4cc(Br)ccc4S3(=O)=O)CC2)cc1OC [Compound 6a, (E)-1-(4-(5-bromo-1,1-dioxidobenzo[b]thiophene-2-carbonyl)piperazin-1-yl)-3-(3,4-dimethoxyphenyl)prop-2-en-1-one] | 1820 ± 190 | 710 ± 140 | 244 to 246 |  |  |  |  | 

Further lines, with some results ahead:

Row | IC50 (MCF-7/DOX cells; Homo sapiens, MCF7-DOX) [nM] | IC50 (MCF-7 cells; Homo sapiens, MCF7, 48 h) [nM] | melting point [°C] | IC50 (MCF-7/DOX cells) [nM] | IC50 (MCF-7 cells; 48 h) [nM] | Compound | IC50 (LO2 cells) [µM] | resistance to DOX compared with parental DOX-sensitive cells (MCF-7/DOX cells; MCF-7/DOX vs MCF-7) [fold] | IC50 (MCF-10A cells) [µM]
10 | 2610 ± 820 | 1600 ± 130 | 215 to 217 |  |  | O=C(/C=C/c1ccc(Br)cc1)N1CCN(C(=O)C2=Cc3ccc(Br)cc3S2(=O)=O)CC1 [Compound 6r, (E)-1-(4-(6-bromo-1,1-dioxidobenzo[b]thiophene-2-carbonyl)piperazin-1-yl)-3-(4-bromophenyl)prop-2-en-1-one] |  |  | 
11 |  |  |  | 550 ± 10 | 1440 ± 110 | (E)-1-(4-(6-bromo-1,1-dioxidobenzo[b]thiophene-2-carbonyl)piperazin-1-yl)-3-(4-hydroxy-3-methoxyphenyl)prop-2-en-1-one [Compound 6u] |  |  | 
12 | 2880 ± 570 | 2620 ± 130 | 81 to 85 |  |  | COc1cc(/C=C/C(=O)N2CCN(C(=O)C3=Cc4ccc(Br)cc4S3(=O)=O)CC2)cc(OC)c1OC [Compound 6n, (E)-1-(4-(6-bromo-1,1-dioxidobenzo[b]thiophene-2-carbonyl)piperazin-1-yl)-3-(3,4,5-trimethoxyphenyl)prop-2-en-1-one] |  |  | 
13 | 64700 ± 3800 | 980 ± 80 |  |  |  | COc1cccc2c1C(=O)c1c(O)c3c(c(O)c1C2=O)C[C@@](O)(C(=O)CO)C[C@@H]3O[C@H]1C[C@H](N)[C@H](O)[C@H](C)O1 [DOX, doxorubicin, reference compound] | 0.82 ± 0.12 | 66.02 | 0.98 ± 0.17
14 | 9490 ± 2800 | 2900 ± 360 | 112 to 114 |  |  | COc1cc(/C=C/C(=O)N2CCN(C(=O)C3=Cc4ccc(Br)cc4S3(=O)=O)CC2)cc(OC)c1O [Compound 6o, (E)-1-(4-(6-bromo-1,1-dioxidobenzo[b]thiophene-2-carbonyl)piperazin-1-yl)-3-(4-hydroxy-3,5-dimethoxyphenyl)prop-2-en-1-one] |  |  | 
15 | 3780 ± 140 | 4000 ± 910 | > 250 |  |  | O=C(/C=C/c1ccccc1O)N1CCN(C(=O)C2=Cc3ccc(Br)cc3S2(=O)=O)CC1 [Compound 6p, (E)-1-(4-(6-bromo-1,1-dioxidobenzo[b]thiophene-2-carbonyl)piperazin-1-yl)-3-(2-hydroxy)prop-2-en-1-one] |  |  | 
16 |  |  |  | 1000 ± 760 | 860 ± 90 | (E)-1-(4-(5-bromo-1,1-dioxidobenzo[b]thiophene-2-carbonyl)piperazin-1-yl)-3-(4-hydroxy-3-methoxyphenyl)prop-2-en-1-one [Compound 6j] |  |  | 
17 | 380 ± 10 | 990 ± 70 | 220 to 222 |  |  | COc1ccc(/C=C/C(=O)N2CCN(C(=O)C3=Cc4ccc(Br)cc4S3(=O)=O)CC2)cc1 [Compound 6m, (E)-1-(4-(6-bromo-1,1-dioxidobenzo[b]thiophene-2-carbonyl)piperazin-1-yl)-3-(4-methoxyphenyl)prop-2-en-1-one] |  |  | 
18 | 2230 ± 160 | 1600 ± 90 | 225 to 227 |  |  | O=C(/C=C/c1ccc(Cl)cc1)N1CCN(C(=O)C2=Cc3ccc(Br)cc3S2(=O)=O)CC1 [Compound 6s, (E)-1-(4-(6-bromo-1,1-dioxidobenzo[b]thiophene-2-carbonyl)piperazin-1-yl)-3-(4-chlorophenyl)prop-2-en-1-one] |  |  | 
19 |  |  |  | 2020 ± 340 | 3030 ± 220 | (E)-1-(4-(6-bromo-1,1-dioxidobenzo[b]thiophene-2-carbonyl)piperazin-1-yl)-3-(3-hydroxy-4-methoxyphenyl)prop-2-en-1-one [Compound 6t] |  |  | 
20 | 4420 ± 170 | 1480 ± 190 | 97 to 99 |  |  | O=C(/C=C/c1ccccn1)N1CCN(C(=O)C2=Cc3ccc(Br)cc3S2(=O)=O)CC1 [Compound 6q, (E)-1-(4-(6-bromo-1,1-dioxidobenzo[b]thiophene-2-carbonyl)piperazin-1-yl)-3-(pyridin-2-yl)prop-2-en-1-one] |  |  | 
21 | 1770 ± 120 | 1250 ± 140 | 222 to 224 |  |  | COc1ccc(/C=C/C(=O)N2CCN(C(=O)C3=Cc4ccc(Br)cc4S3(=O)=O)CC2)cc1OC [Compound 6l, (E)-1-(4-(6-bromo-1,1-dioxidobenzo[b]thiophene-2-carbonyl)piperazin-1-yl)-3-(3,4-dimethoxyphenyl)prop-2-en-1-one] |  |  | 
22 |  |  |  | 2140 ± 270 | 1450 ± 170 | (E)-1-(4-(5-bromo-1,1-dioxidobenzo[b]thiophene-2-carbonyl)piperazin-1-yl)-3-(4-fluorophenyl)prop-2-en-1-one [Compound 6v] |  |  | 
